Columns and labels:
[1] = tested on: atherosclerotic plaques of DKO mice; assay: Atherosclerosis: morphometric and immunohistochemical analysis of aortic root cross sections of DKO mice; format: in vivo, mouse; settings: stevioside 10 mg/kg or steviol 5 mg/kg orally, 12 weeks
Description: (§1) Homozygous LDL-receptor-knockout mice (LDLR^(−/−)), heterozygous ob/+, and C57BL6 mice were purchased from Jackson Laboratory, Bar Harbor, Me. LDLR^(−/−) mice were backcrossed into a C57BL6 background to the 10th generation. To obtain DKO mice with combined leptin deficiency (ob/ob) and LDL-receptor deficiency, LDLR^(−/−) and ob/+ mice were crossed. All offspring were genotyped by polymerase chain reaction (PCR) techniques. All mice were housed at 22° C. on a fixed 12/12-hour light/dark cycle. Experimental procedures in animals were performed in accordance with protocols approved by the Institutional Animal Care and Research Advisory Committee. All mice were fed standard chow containing 4% fat (Pavan Service). Food intake was ≈5.7 g/d. Mice (about 50 g) were treated with stevioside (N=14; 10 mg/kg), steviol (N=9; 5 mg/kg) or placebo (N=17) for 12 weeks between 12 and 24 weeks of age. Stevioside (Molecular weight: 804) was dissolved in water (1 mg/ml) and 500 μl of the solution was administered orally. Steviol (Molecular weight: 318) was dissolved in water containing 6% NaHCO3 (1 mg/ml) and 250 μl of the solution was administered orally.
The extent of atherosclerosis was determined by analysis of cross sections from the aortic root. Approximately ten 7-μm frozen sections per staining per animal were used for morphometric and immunohistochemical analysis. Total plaque areas were measured on hematoxylin and eosin stained sections. Lipids were stained with oil-red O, and macrophage areas were stained with an antibody against mouse Mac-3 antigen (Pharmingen), and oxidized LDL with the monoclonal antibody 4E6. Blinded analysis of positive immunostained sections was performed with the Quantimet600 image analyzer (Leica).

[2] = tested on: Chinese hypertensive men and women; settings: cited from earlier work
bacteria of the colon = settings: cited from earlier work
healthy subjects = assay: Stevioside 250 mg capsules thrice daily in healthy subjects; format: in vivo, human; settings: 10 healthy subjects
Excerpt: The present invention relates to the diterpenoic tetrahydropyran, steviol-19-glucuronide (a natural metabolite of stevioside) and other diterpenoic tetrahydropyran derivatives. […] However, oral administration of stevioside results in the surprising finding that it increases the expression and activity of PPARs, and that it exerts system biological effects to normalise lipid metabolism and to inhibit the formation atherosclerotic cardiovascular disease.

hypertensive rats = settings: direct intravenous injection; cited from earlier work
[3] = tested on: mice with combined leptin and LDL-receptor deficiency (double knockout [DKO] mice); assay: Blood analyses (glucose, insulin, lipids, HOMA, adiponectin) in obese, dyslipidemic and diabetic DKO mice; format: in vivo, mouse
Excerpt: We measured the effect of stevioside on weight, blood variables (e.g. glucose, insulin, lipids), PPAR expression in adipose tissues, and on atherosclerosis in mice with combined leptin and LDL-receptor deficiency (double knockout [DKO] mice).
as §1
Blood of conscious mice was collected by tail bleeding into EDTA tubes after an overnight fast. Plasma was obtained by centrifugation. Plasma cholesterol and triglycerides were measured by means of standard enzymatic colorimetric assays (Boehringer Mannheim), plasma fatty acids (FFA) by means of the FFA-Half Microtest kit (Roche Applied Science), glucose by means of a glucometer (Menarini Diagnostics), plasma insulin and adiponectin by means ELISAs (Mercodia and R&D, respectively). Insulin resistance was calculated by a homeostasis model assessment (HOMA)=fasting serum insulin (mU/L) times fasting blood glucose (mmol/L)/22.5.

[4] = time points 3 days after administration
[5] = stevioside 10 mg/kg or steviol 5 mg/kg orally, 12 weeks, compared with placebo mice
[6] = stevioside 10 mg/kg orally, 12 weeks, compared to baseline levels

SMILES: C=C1C[C@@]23CC[C@H]4C(C)(CCC[C@@]4(C)C(=O)O[C@@H]4O[C@H](CO)C(O)[C@H](O)C4O)[C@@H]2CCC1(OC1O[C@H](CO)C(O)C(O)C1OC1O[C@H](CO)C(O)[C@H](O)C1O)C3 (stereo in doubt) [stevioside, Kaur-16-en-18-oic acid, 13-[(2-O-b-D-glucopyranosyl-b-D-glucopyranosyl)oxy]-, b-D-glucopyranosyl ester, (4a)-]
- lipid deposition in plaques [1]: reducing
- macrophage deposition in plaques [1]: reducing
- oxLDL deposition in plaques [1]: reducing
- plaque volume [1]: lowered
- smooth muscle cell (SMC)-to-macrophage ratio (proxy for plaque stability) [1]: increased
- lowering of systolic and diastolic blood pressure ([2]; 750 mg or 1500 mg of stevioside a day for one or two years): about 7%
- fasting glucose concentrations ([2]; long-term administration, volunteers with normal glucose levels): did not reveal effects
- degradation by bacteria of the colon (bacteria of the colon): degraded
- 24-hour urinary volume (healthy subjects): not significantly different
- mean blood glucose, control vs stevioside condition (healthy subjects): no significant difference
- mean insulin, control vs stevioside condition (healthy subjects): no significant difference
- urinary excretion of electrolytes (healthy subjects): not significantly different
- blood biochemical parameters, control vs stevioside condition (healthy subjects; [4]): does not provide significant differences
- blood pressure, control vs stevioside condition (healthy subjects; [4]): does not provide significant differences
- blood pressure (hypertensive rats): blood pressure reduction
- plasma concentration of adiponectin ([3]; after 12 weeks of treatment, before treatment 4729±1652, P=0.003): 6517 ± 1472 ng/mL
- FFA level [3, 5]: significantly lower
- HOMA values (insulin resistance) [3, 5]: significantly lower
- cholesterol level [3, 5]: significantly lower
- glucose level [3, 5]: significantly lower
- insulin level [3, 5]: significantly lower
- triglyceride level [3, 5]: significantly lower
- FFA [3, 6]: reduced
- cholesterol [3, 6]: reduced
- glucose [3, 6]: reduced
- insulin [3, 6]: reduced
- triglycerides [3, 6]: reduced
- insulin sensitivity ([3]; stevioside 10 mg/kg orally, 12 weeks, result of the decrease in glucose and insulin): increase
